Structures are written as SMILES. Where “and” joins values, the source holds several entries; their conditions need not be identical. Equal values may be shown once.

The target in experiment [1] is Lanosterol 14-alpha-demethylase (Trypanosoma brucei brucei (strain 927/4 GUTat10.1), UniProt Q385E8). As to the kind of experiment: Inhibition Assay. The conditions noted are these: pH 6.
Experiment [2] deals with Sterol 14-alpha demethylase (Trypanosoma cruzi (strain CL Brener), UniProt Q7Z1V1). As to the kind of experiment: Inhibition Assay. The conditions noted are these: pH 6.
Chain of Sterol 14-alpha demethylase (Q7Z1V1 whole entry): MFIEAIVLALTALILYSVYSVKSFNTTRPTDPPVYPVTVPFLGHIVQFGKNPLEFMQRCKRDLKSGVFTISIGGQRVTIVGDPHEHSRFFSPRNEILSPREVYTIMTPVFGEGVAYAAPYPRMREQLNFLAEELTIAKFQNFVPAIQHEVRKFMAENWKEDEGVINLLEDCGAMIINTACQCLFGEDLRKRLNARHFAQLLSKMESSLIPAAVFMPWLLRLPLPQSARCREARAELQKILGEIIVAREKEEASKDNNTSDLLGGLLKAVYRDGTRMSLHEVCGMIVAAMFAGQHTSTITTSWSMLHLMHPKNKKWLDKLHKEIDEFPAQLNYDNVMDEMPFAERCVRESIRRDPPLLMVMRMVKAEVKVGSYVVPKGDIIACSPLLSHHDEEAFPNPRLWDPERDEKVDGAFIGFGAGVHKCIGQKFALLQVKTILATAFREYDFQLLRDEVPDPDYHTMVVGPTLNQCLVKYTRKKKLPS

Chain of Lanosterol 14-alpha-demethylase (Q385E8 whole entry): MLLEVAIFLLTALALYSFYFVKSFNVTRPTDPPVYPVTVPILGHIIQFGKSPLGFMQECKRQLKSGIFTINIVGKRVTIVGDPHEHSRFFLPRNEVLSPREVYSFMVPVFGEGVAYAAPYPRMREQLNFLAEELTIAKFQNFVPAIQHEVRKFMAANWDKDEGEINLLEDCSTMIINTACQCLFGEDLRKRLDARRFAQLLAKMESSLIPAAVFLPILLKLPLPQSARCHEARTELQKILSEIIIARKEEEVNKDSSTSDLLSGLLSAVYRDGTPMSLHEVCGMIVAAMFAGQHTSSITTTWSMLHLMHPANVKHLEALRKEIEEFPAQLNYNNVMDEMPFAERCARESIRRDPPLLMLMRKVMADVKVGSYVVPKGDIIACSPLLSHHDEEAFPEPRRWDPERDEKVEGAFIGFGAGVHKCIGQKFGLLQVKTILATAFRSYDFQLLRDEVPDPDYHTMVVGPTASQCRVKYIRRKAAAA

In the case of `O=C(NCC(c1ccccc1)n1ccnc1)c1ccc(-c2ccc(Cl)cc2)cc1` (centres undefined) [Azole, 12], the results for the Kd in experiment [1] and in experiment [2] were 40 nM and 70 nM, respectively.
In turn, `CC(=O)N1CCN(c2ccc(OC[C@H]3CO[C@](Cn4ccnc4)(c4ccc(Cl)cc4Cl)O3)cc2)CC1` [24F2-1,25(OH)D3] gave a Kd in experiment [1] of 2300 nM.
`CCCCOc1ccc(-c2ccc(C(=O)NC(Cn3ccnc3)c3ccc(Cl)cn3)cc2)cc1` (centres undefined) [Azole, 17]: the Kd turned out to be 80 nM in experiment [1] and 110 nM in experiment [2].
For `O=C(NCC(c1ccccc1)n1ccnc1)c1ccc2sc3ccccc3c(=O)c2c1` (centres undefined) [Azole, 7], in that order: 310 nM and 380 nM.
Turning to `COc1cccc(Sc2ccc(C(=O)NCC(c3ccccc3)n3ccnc3)cc2)c1` (centres undefined) [Azole, 9], the Kd in experiment [1] came to 70 nM; in experiment [2], 90 nM.
For `O=C(NCC(c1ccccc1)n1ccnc1)c1csc(-c2ccc(Cl)cc2)c1` (centres undefined) [Azole, 8], in that order: 210 nM and 110 nM.
The matching figures for `O=C(NC(Cn1ccnc1)c1ccc(Cl)cn1)c1ccc(-c2ccc(Cl)cc2)cc1` (centres undefined) [Azole, 19]: 90 nM and 60 nM.
The matching figures for `O=C(NC(Cn1ccnc1)c1ccc(Cl)cc1Cl)c1nnc(-c2ccccc2)o1` (centres undefined) [Azole, 3]: 140 nM and 140 nM.
For the compound `O=C(NCC(c1ccccc1)n1ccnc1)c1cnc[nH]1` (centres undefined) [Azole, 5], the Kd in experiment [1] came to 1900 nM; in experiment [2], 1200 nM.
For `O=C(NCC(c1ccccc1)n1ccnc1)c1cccc2c1oc1ccccc12` (centres undefined) [Azole, 6], in that order: 210 nM and 130 nM.
`O=C(NC(Cn1ccnc1)c1ccc(Cl)cn1)c1ccc(-c2ccc(Cl)cc2)cc1` (centres undefined) [Azole, 20] registered a Kd in experiment [2] of 70 nM.
Turning to `O=C(NC(Cn1ccnc1)c1ccc(Cl)cc1Cl)c1nnc(-c2ccccc2)o1` (centres undefined) [Azole, 2], the equilibrium dissociation constant (Kd) in experiment [1] is 90 nM and 100 nM.
Consider `O=C(NC(Cn1ccnc1)c1ccccc1)c1ccc(-c2ccc(Cl)cc2)cc1` (centres undefined) [Azole, 4], for which the figures for the Kd in experiment [1] and in experiment [2] were 50 nM and 70 nM, respectively.
For `COc1ccc(CC(CNC(=O)c2ccc(-c3ccc(Cl)cc3)cc2)n2ccnc2)cc1` (centres undefined) [Azole, 11], in that order: 710 nM and 110 nM.
The matching figures for `O=C(NCC(c1ccccc1)n1ccnc1)c1cccc(Sc2ccccc2)c1` (centres undefined) [Azole, 10]: 50 nM and 50 nM.
The matching figures for `O=C(NCC(c1ccc(Cl)cc1)(c1ccc(Cl)cc1)n1ccnc1)c1ccccc1` [Azole, 1]: 1010 nM and 320 nM.

One may read the Kd as the concentration at which binding is half-saturated. Read a low Kd as tighter binding.

These data come from BindingDB's records for doi:10.1016/j.chembiol.2007.10.011 (Vanderbilt University, 2007).
